We go through 20 compounds from ChEMBL document CHEMBL5036361, “Structurally Diverse Sesquiterpenoid Glycoside Esters from Pittosporum qinlingense with Anti-neuroinflammatory Activity” (J Nat Prod, 2022).

Structures are written as SMILES. pIC50: −log10 of the molar value. The source made the active and inactive calls. The calls are words filed in the database; no cut-off is given here. Where only a bound is given, the exact number is not on record here.

As usually defined, the pIC50 is the negative decadic logarithm of the IC50, by convention in mol/L.

Series [1] has as its system BV-2. Nature of the series: Cytotoxicity against mouse BV-2 cells at 6.25 to 100 uM after 24 hrs by MTT assay. The class given is cell-based. To be noted: bv-2, 24 h, dose 6.25-100 µM.
The test system of series [2] is BV-2. Description: Antineuroinflammatory activity against mouse BV-2 cells assessed as inhibition of LPS-induced NO production incubated for 24 hrs by Griess assay. It counts as functional, cell-based. To be noted: BV-2, 24 h. (Griess reagent forms a coloured azo dye with nitrite.)
Series [3] relates to BV-2. Nature of the series: Downregulation of LPS-induced iNOS expression in mouse BV-2 cells at 1.25 to 10 uM preincubated for 1 hr followed by LPS stimulation for 24 hrs by western blot analysis. The class given is functional, cell-based. To be noted: dose 1.25-10 µM. (In general: In western blotting, separated proteins are transferred to a membrane and probed.)
Series [4] relates to BV-2. Description: Downregulation of LPS-induced COX-2 expression in mouse BV-2 cells at 1.25 to 10 uM preincubated for 1 hr followed by LPS stimulation for 24 hrs by western blot analysis. The class given is functional, cell-based. The following applies: dose 1.25-10 µM.

`C/C=C(/C)C(=O)O[C@@H]1[C@@H](OC(C)=O)[C@H](O[C@]2(C)CC[C@@H]3[C@H]([C@@H]4[C@H](C)CC[C@@H]42)C3(C)C)OC[C@H]1O`: the Activity result with BV-2 [1] was “Non-Toxic”. Besides, the pIC50 in the series with BV-2 [2] was 4.62.
For the compound `C/C=C(\C)C(=O)O[C@H]1[C@@H](O)[C@@H](C)O[C@@H](O[C@H]2C[C@@](C)(O)[C@H]3CC[C@](C)(O)[C@H]3[C@H]3[C@@H]2C3(C)C)[C@@H]1OC(C)=O`, the Activity entry in the series on BV-2 [1] was “Non-Toxic”. Further, the pIC50 with BV-2 [2] was under 4.30.
Turning to `CC(=O)O[C@H]1[C@H](O[C@]2(C)CC[C@@H]3[C@H]([C@@H]4[C@H](C)CC[C@@H]42)C3(C)C)O[C@H](C)[C@H](O)[C@@H]1OC(=O)/C=C(/C)CO`, the Activity entry in the series on BV-2 [1] is listed as “Non-Toxic”. Besides, in the series with BV-2 [2], the pIC50 is 4.75.
As to `CCC(C)C(=O)O[C@H]1[C@@H](O)[C@@H](C)O[C@@H](O[C@]2(C)CC[C@@H]3[C@H]([C@@H]4[C@H](C)CC[C@@H]42)C3(C)C)[C@@H]1OC(C)=O` (some centres not stated), in the series with BV-2 [1], the Activity result is “Non-Toxic”. In addition, in the series with BV-2 [2], the pIC50 was under 4.30.
As for `C=C1CC[C@@H](O)[C@]2(C)CC[C@@H](C(C)(C)O[C@@H]3O[C@H](C)[C@H](O)[C@H](OC(=O)/C(C)=C/C)[C@H]3OC(C)=O)[C@H](OC)[C@@H]12`, in the series on BV-2 [1], the Activity result was “Non-Toxic”. Moreover, in the series with BV-2 [2], the pIC50 was under 4.30.
Take `CC(=O)O[C@@H]1[C@H](OC(=O)C=C(C)C)[C@@H](OC(C)=O)[C@H](O[C@@]2(C)CC[C@@H]3[C@H]([C@@H]4[C@H](C)CC[C@@H]42)C3(C)C)O[C@@H]1C`: in the series on BV-2 [1], the Activity entry was “Non-Toxic”. Further, the outcome in the series on BV-2 [3] and in the series with BV-2 [4] was Active. In the series on BV-2 [2], the pIC50 was 6.02.
Turning to `C/C=C(/C)C(=O)O[C@H]1[C@H](O)[C@@H](CO)O[C@@H](O[C@]2(C)CC[C@@H]3[C@H]([C@@H]4[C@H](C)CC[C@@H]42)C3(C)C)[C@@H]1OC(C)=O`, the Activity result in the series with BV-2 [1] was “Non-Toxic”. Further, the outcome in the series with BV-2 [3] and in the series on BV-2 [4] was Active. Besides, in the series on BV-2 [2], the pIC50 is 5.20.
In the case of `C/C=C(/C)C(=O)O[C@H]1[C@H](O)[C@@H](OC(C)=O)[C@H](O[C@]2(C)CC[C@@H]3[C@H]([C@@H]4[C@H](C)CC[C@@H]42)C3(C)C)O[C@@H]1CO`, the Activity result in the series on BV-2 [1] is reported as “Non-Toxic”. The pIC50 in the series with BV-2 [2] is 4.67.
As to `CC(=O)O[C@H]1[C@H](O[C@@]2(C)CC[C@@H]3[C@H]([C@@H]4[C@H](C)CC[C@@H]42)C3(C)C)O[C@H](C)[C@H](O)[C@@H]1OC(=O)C=C(C)C`, the Activity result with BV-2 [1] is listed as “Non-Toxic”. Further, the result in the series with BV-2 [3] and in the series on BV-2 [4] was Active. Moreover, the pIC50 with BV-2 [2] is 5.31.
Take `CC1(C)[C@H]2[C@H]3[C@@H](CC[C@@]3(C)O)[C@](C)(O)CC[C@H]21`: the Activity entry in the series with BV-2 [1] was “Non-Toxic”. In addition, the pIC50 in the series with BV-2 [2] was under 4.30.
Consider `C/C=C(/C)C(=O)O[C@H]1[C@@H](O)[C@@H](C)O[C@@H](O[C@]2(C)CC[C@@H]3[C@H]([C@@H]4[C@H](C)CC[C@@H]42)C3(C)C)[C@@H]1OC(C)=O`, for which, in the series on BV-2 [1], the Activity result is “Non-Toxic”. Further, in the series with BV-2 [2], the pIC50 is 5.84.
As for `CC(C)[C@@H]1CC[C@@]2(C)[C@H](O)CC[C@](C)(O)[C@@H]2[C@H]1O`, in the series with BV-2 [1], the Activity entry is recorded as “Non-Toxic”. Further, the pIC50 in the series on BV-2 [2] was under 4.30.
Turning to `C[C@@H]1CC[C@H]2[C@@H]1[C@H]1[C@@H](CC[C@@]2(C)O)C1(C)C`, the Activity entry with BV-2 [1] was “Non-Toxic”. Further, in the series with BV-2 [2], the pIC50 was under 4.30.
For `CC(=O)O[C@H]1[C@H](O[C@]2(C)CC[C@@H]3[C@H]([C@@H]4[C@H](C)CC[C@@H]42)C3(C)C)O[C@H](CO)[C@@H](O)[C@@H]1O` the same measures were “Non-Toxic” and under 4.30.
With `C=C1C[C@H](O[C@@H]2O[C@H](C)[C@H](O)[C@H](OC(=O)/C(C)=C/C)[C@H]2OC(C)=O)[C@H]2[C@@H]([C@H]3[C@@H]1CC[C@]3(C)O)C2(C)C`, in the series with BV-2 [1], the Activity result is listed as “Non-Toxic”. Also, the pIC50 in the series with BV-2 [2] is under 4.30.
With `C=C1C[C@H](O[C@@H]2O[C@H](C)[C@H](O)[C@H](O)[C@H]2OC(C)=O)[C@H]2[C@@H]([C@H]3[C@@H]1CC[C@]3(C)O)C2(C)C`, the Activity result in the series on BV-2 [1] is on record as “Non-Toxic”. The pIC50 in the series on BV-2 [2] was under 4.30.
Consider `C[C@@H]1CC[C@H]2[C@@H]1[C@H]1[C@@H](CC[C@@]2(C)O[C@@H]2O[C@H](C)[C@H](O)[C@H](O)[C@H]2O)C1(C)C`, for which the Activity result with BV-2 [1] is given as “Non-Toxic”. Further, the pIC50 in the series with BV-2 [2] is under 4.30.
For the compound `C/C=C(/C)C(=O)O[C@H]1[C@@H](OC(C)=O)[C@@H](C)O[C@@H](O[C@]2(C)CC[C@@H]3[C@H]([C@@H]4[C@H](C)CC[C@@H]42)C3(C)C)[C@@H]1OC(C)=O`, in the series with BV-2 [1], the Activity entry is reported as “Non-Toxic”. For the same compound, the outcome in the series on BV-2 [3] was inactive. Further, the outcome in the series on BV-2 [4] was Active. For the same compound, in the series on BV-2 [2], the pIC50 is 6.01.
For the compound `C=C1C[C@@H](O[C@@H]2O[C@H](C)[C@H](O)[C@H](OC(=O)/C(C)=C/C)[C@H]2OC(C)=O)[C@@H](C(C)C)[C@@H]2C=C(C)CC[C@@H]12`, the Activity result with BV-2 [1] is recorded as “Non-Toxic”. In the series on BV-2 [2], the pIC50 is under 4.30.
For `O=c1c(O)c(-c2ccc(O)c(O)c2)oc2cc(O)cc(O)c12` [QUERCETIN], the pIC50 with BV-2 [2] was 5.61.
